# Experimental data taken from PubChem BioAssay (NCI).
#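 Test compounds were applied to cells in 96-well plates for 48 hours at 5 doses. GI50: concentration for 50% inhibition of growth. TGI: concentration producing complete growth inhibition.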
# Tests used:
# Assay in all cases: NCI tumour cell line growth inhibition, 48 h
# [1] = system: EKVX NSCLC
# [2] = system: CCRF-CEM leukemia
# [3] = system: NCI-H23 lung
# [4] = system: T-47D breast
# [5] = system: NCI-H522 lung
# [6] = system: UO-31 renal
# [7] = system: NCI/ADR-RES ovarian
# [8] = system: MDA-MB-435
# [9] = system: SW-620 colon
# [10] = system: PC-3 prostate
# [11] = system: MOLT-4 leukemia
# [12] = system: HCT-116 colon
# [13] = system: UACC-62 melanoma
# [14] = system: K-562 leukemia
Compound,TGI [1],TGI [2],TGI [3],TGI [4],TGI [5],TGI [6],TGI [7],TGI [8],TGI [9],TGI [10],TGI [11],TGI [12],TGI [13],TGI [14],GI50 [1],GI50 [3],GI50 [6],GI50 [8],GI50 [9],GI50 [10]
Cc1cccc(Nc2nc(NNC(=O)Cc3ccccc3)nc(NNC(=O)c3ccncc3)n2)c1,> 10 µM,> 10 µM,> 10 µM,> 10 µM,> 10 µM,> 10 µM,> 10 µM,> 10 µM,> 10 µM,> 10 µM,> 10 µM,> 10 µM,> 10 µM,,,,,,,
N#Cc1nc(C2SCCCS2)oc1N,> 100 µM,> 100 µM,,,,,,> 100 µM,> 100 µM,> 100 µM,> 100 µM,> 100 µM,> 100 µM,> 100 µM,,,,,,
CCC(C)C(NC(=O)c1c2ccccc2nc2ccccc12)C(=O)O (stereo unspecified),> 100 µM,> 100 µM,> 100 µM,,> 100 µM,> 100 µM,> 100 µM,> 100 µM,> 100 µM,> 100 µM,> 100 µM,> 100 µM,> 100 µM,> 100 µM,,,,,,
COC(=O)C(CCSc1ccccc1)C(=O)OC,> 100 µM,> 100 µM,> 100 µM,> 100 µM,> 100 µM,> 100 µM,> 100 µM,> 100 µM,> 100 µM,> 100 µM,> 100 µM,> 100 µM,> 100 µM,,,,,,,
Cc1ccc(S(=O)(=O)c2ccsc2NC(=O)c2ccccc2)cc1,> 100 µM,,> 31.6 µM,> 100 µM,> 100 µM,> 100 µM,> 100 µM,> 100 µM,> 100 µM,> 100 µM,> 100 µM,> 100 µM,> 100 µM,> 21.8 µM,,,,,,
O=C1NCC2(CCNCC2)N1,> 100 µM,> 100 µM,> 100 µM,> 100 µM,,> 100 µM,> 100 µM,> 100 µM,> 100 µM,,> 100 µM,> 100 µM,> 100 µM,,,,,,,
C=CCOCn1ccc(NC(=O)c2ccccc2)nc1=O,> 100 µM,> 100 µM,> 100 µM,> 100 µM,> 100 µM,> 100 µM,,> 100 µM,> 100 µM,> 100 µM,> 100 µM,> 100 µM,> 100 µM,> 100 µM,,,,,,
CC(=O)O[C@]12CCCCC1C1(O)C(O)CCCC[C@H]12 (stereo partly specified),> 100 µM,> 100 µM,> 100 µM,,> 100 µM,> 100 µM,,,> 100 µM,,> 100 µM,> 100 µM,> 100 µM,> 100 µM,,,,,,
C=CCN1C[C@@H](C)N([C@@H](c2ccccc2)c2ccc(C(=O)N(CC)CC)cc2)C[C@@H]1C,> 100 µM,,> 100 µM,> 100 µM,> 100 µM,> 100 µM,> 100 µM,> 100 µM,> 100 µM,> 100 µM,> 100 µM,> 100 µM,> 100 µM,,,,,,,
OCCN1CCN(c2nc(Nc3ccc(-c4nc5ccccc5[nH]4)cc3)c3cn[nH]c3n2)CC1,3.26 µM,,3.54 µM,,,3.14 µM,,3.29 µM,1.87 µM,3.13 µM,,,,,1.73 µM,1.83 µM,1.64 µM,1.82 µM,0.464 µM,1.64 µM
CC1=C(c2ccc(C)cc2)NC(=S)C(C)C(c2ccc(C)cc2)=N1 (stereo unspecified),> 100 µM,> 100 µM,> 100 µM,> 100 µM,,> 100 µM,> 100 µM,> 100 µM,> 100 µM,,> 100 µM,> 100 µM,> 100 µM,> 100 µM,,,,,,
CCCCCCCSCC1OC(n2cnc3c(N)ncnc32)C(O)C1O (stereo unspecified),56.2 µM,> 100 µM,> 100 µM,,,,,,46.5 µM,,62.4 µM,11.4 µM,,> 100 µM,,,,,,
NN/C(=N\S(=O)(=O)c1cccc2nsnc12)Nc1ccc(Cl)cc1,> 100 µM,> 100 µM,> 100 µM,> 100 µM,,> 100 µM,> 100 µM,,> 100 µM,> 100 µM,> 100 µM,> 100 µM,> 100 µM,> 100 µM,,,,,,
CN(C)C(=O)C(F)(F)C(c1ccc(C(F)(F)F)cc1)C1C(=O)N(C)C(=O)N(C)C1=O (stereo unspecified),> 100 µM,> 100 µM,> 100 µM,> 100 µM,,> 100 µM,> 100 µM,> 100 µM,> 100 µM,> 100 µM,,> 100 µM,> 100 µM,,,,,,,
Nc1ccn(CC(CO)CC(c2ccccc2)P(=O)(O)O)c(=O)n1 (stereo unspecified),> 100 µM,> 100 µM,> 100 µM,,> 100 µM,> 100 µM,,,> 100 µM,,> 100 µM,> 100 µM,> 100 µM,> 100 µM,,,,,,
COCN1C(=O)[C@@H]2CCCN2C(=O)c2cc(Cl)ccc21,> 100 µM,,> 100 µM,> 100 µM,> 100 µM,> 100 µM,> 100 µM,> 100 µM,> 100 µM,> 100 µM,> 100 µM,> 100 µM,> 100 µM,> 100 µM,,,,,,
CN1CC(S(=O)(=O)c2ccccc2)CC(S(=O)(=O)c2ccccc2)C1c1ccccc1 (stereo unspecified),32.6 µM,,,50.6 µM,13.1 µM,29.4 µM,> 100 µM,28.3 µM,34.4 µM,27.1 µM,> 100 µM,22.9 µM,29 µM,95.2 µM,,,,,,
COC(=O)C1CCC[C@H]2C(CO)=C(C)C(=O)[C@@H]12 (stereo partly specified),> 100 µM,> 100 µM,> 100 µM,,> 100 µM,> 100 µM,,,> 100 µM,,> 100 µM,> 100 µM,> 100 µM,> 100 µM,,,,,,
CCCC(=O)[O-].CCCC(=O)[O-].N.N.N.N.[Co+3].[O-][Cl+3]([O-])([O-])[O-],> 100 µM,> 100 µM,> 100 µM,,> 100 µM,> 100 µM,,,> 100 µM,,> 100 µM,> 100 µM,> 100 µM,> 100 µM,,,,,,
